Measured values reported in patent US8993282B2, “Carotenoid fermentation method” (JX Nippon Oil & Energy Corporation, priority 2008, dated 2015).

Test system: Paracoccus carotinifaciens strain E-396 (FERM BP-4283)
Test: Glutamate concentration series, 5 L fermentation tank culture, carotenoid by HPLC
Assay type: cell-based
Conditions: for Produced carotenoid concentration, 3-Hydroxyechinenone / Produced carotenoid concentration, Adonixanthin / Produced carotenoid concentration, Astaxanthin / Produced carotenoid concentration, Asteroidenone / Produced carotenoid concentration, Canthaxanthin / Produced carotenoid concentration, Echinenone / Produced carotenoid concentration, Phoenicoxanthin / Produced carotenoid concentration, Total Carotenoid / Produced carotenoid concentration, Zeaxanthin / Produced carotenoid concentration, β-Carotene / Produced carotenoid concentration, β-Cryptoxanthin: 100 hours
Procedure: In the examples, carotenoids were quantified by high performance liquid chromatography (HPLC) as follows.
Two columns of Wakosil-II 5 SIL-100 (φ4.6×250 mm) (Wako Pure Chemical Industries, Ltd., Japan) were connected to each other for use as a column. Elution was performed by flowing an n-hexane-tetrahydrofuran-methanol mixed solution (40:20:1), which was a mobile phase, at a flow rate of 1.0 mL/minute at a constant temperature around room temperature. The measurement was performed as follows. Samples were each dissolved in tetrahydrofuran and then diluted 100-fold with the mobile phase. Each dilution was injected in a volume of 20 μL. The column eluate was detected at a wavelength of 470 nm. As a reference for quantification, astaxanthin (SIGMA, Cat. No. A9335) was used. The astaxanthin concentration of the reference solution was determined using the following equation after measuring the absorbance (A) of the reference solution at 477 nm and the area percentage % (B) of the astaxanthin peak at the time of HPLC analysis under the above conditions. Astaxanthin concentration (mg/L)=A/2150×B×100
A medium of the following composition (glucose 20 g/L, filtered corn steep liquor 5 g/L, potassium dihydrogenphosphate 0.54 g/L, dipotassium hydrogenphosphate 12-hydrate 2.78 g/L, calcium chloride dihydrate 5.0 g/L, magnesium sulfate 7-hydrate 0.7 g/L, iron sulfate 7-hydrate 3.0 g/L, alcohol-based defoaming agent 0.2 g/L., pH 7.5) was dispensed in 100 ml volumes into 500 mL cotton-plugged Erlenmeyer flasks and sterilized in an autoclave at 121° C. for 15 minutes to prepare a flask medium for seed culture in 8 flasks.
Next, a medium of the following composition (glucose 40 g/L, corn steep liquor 30 g/L, ammonium sulfate 0.5 g/L, potassium dihydrogenphosphate 2.25 g/L, disodium hydrogenphosphate 12-hydrate 5.7 g/L, calcium chloride dihydrate 0.1 g/L, magnesium sulfate 7-hydrate 0.5 g/L, iron sulfate 7-hydrate 5 g/L, alcohol-based defoaming agent 0.5 g/L) was dispensed in 2.0 L volumes into 5 L fermentation tanks (8 tanks in total). To these tanks, monosodium L-glutamate monohydrate was added at 0, 1, 5, 15, 30, 50, 100 and 200 mmol/L, respectively, followed by sterilization in an autoclave at 121° C. for 30 minutes.
A loopful of Paracoccus carotinifaciens strain E-396 (FERM BP-4283) was inoculated into the flask medium for seed culture and then cultured with rotary shaking at 29° C. for 2 days at 100 rpm. The resulting culture solution was then inoculated in 80 mL, volumes into the individual fermentation tanks, followed by aerobic culture at 29° C. at an aeration volume of 1 vvm for 100 hours. To maintain a pH of 7.2 during culture, the pH was continuously controlled with 15% aqueous ammonia. Glucose was added in an amount of 30 g on day 1 and day 2 of culture to prevent glucose depletion. In addition, the minimum number of agitation rotations was set to 200 rpm, and the number of agitation rotations was varied such that the dissolved oxygen concentration in the culture solution was maintained at 2 to 4 ppm. Bubbling was detected with a bubble sensor and suppressed by automatic addition of an alcohol-based defoaming agent.
At the completion of culture, each culture solution was measured for its carotenoid concentration by HPLC.

[1] = Glutamic acid concentration 1 mmol/L
[2] = Glutamic acid concentration 5 mmol/L
[3] = Glutamic acid concentration 15 mmol/L
[4] = Glutamic acid concentration 30 mmol/L
[5] = Glutamic acid concentration 50 mmol/L
[6] = Glutamic acid concentration 100 mmol/L
[7] = Glutamic acid concentration 200 mmol/L

N[C@@H](CCC(=O)O)C(=O)O [Glutamic acid, glutamic acid]
Produced carotenoid concentration, 3-Hydroxyechinenone [1]: 0.2 mg/L | Produced carotenoid concentration, Adonixanthin [1]: 7.8 mg/L | Produced carotenoid concentration, Astaxanthin [1]: 18.3 mg/L | Produced carotenoid concentration, Asteroidenone [1]: 0.4 mg/L | Produced carotenoid concentration, Canthaxanthin [1]: 2.0 mg/L | Produced carotenoid concentration, Echinenone [1]: 1.6 mg/L | Produced carotenoid concentration, Phoenicoxanthin [1]: 5.1 mg/L | Produced carotenoid concentration, Total Carotenoid [1]: 39.9 mg/L | Produced carotenoid concentration, Zeaxanthin [1]: 0.17 mg/L | Produced carotenoid concentration, β-Carotene [1]: 4.3 mg/L | Produced carotenoid concentration, β-Cryptoxanthin [1]: 0.05 mg/L | Produced carotenoid concentration, 3-Hydroxyechinenone [2]: 0.3 mg/L | Produced carotenoid concentration, Adonixanthin [2]: 7.8 mg/L | Produced carotenoid concentration, Astaxanthin [2]: 27.3 mg/L | Produced carotenoid concentration, Asteroidenone [2]: 0.4 mg/L | Produced carotenoid concentration, Canthaxanthin [2]: 3.7 mg/L | Produced carotenoid concentration, Echinenone [2]: 1.9 mg/L | Produced carotenoid concentration, Phoenicoxanthin [2]: 7.8 mg/L | Produced carotenoid concentration, Total Carotenoid [2]: 55.7 mg/L | Produced carotenoid concentration, Zeaxanthin [2]: 0.18 mg/L | Produced carotenoid concentration, β-Carotene [2]: 6.2 mg/L | Produced carotenoid concentration, β-Cryptoxanthin [2]: 0.07 mg/L | Produced carotenoid concentration, 3-Hydroxyechinenone [3]: 0.3 mg/L | Produced carotenoid concentration, Adonixanthin [3]: 9.6 mg/L | Produced carotenoid concentration, Astaxanthin [3]: 30.8 mg/L | Produced carotenoid concentration, Asteroidenone [3]: 0.6 mg/L | Produced carotenoid concentration, Canthaxanthin [3]: 3.0 mg/L | Produced carotenoid concentration, Echinenone [3]: 2.1 mg/L | Produced carotenoid concentration, Phoenicoxanthin [3]: 7.2 mg/L | Produced carotenoid concentration, Total Carotenoid [3]: 59.7 mg/L | Produced carotenoid concentration, Zeaxanthin [3]: 0.19 mg/L | Produced carotenoid concentration, β-Carotene [3]: 5.8 mg/L | Produced carotenoid concentration, β-Cryptoxanthin [3]: 0.07 mg/L | Produced carotenoid concentration, 3-Hydroxyechinenone [4]: 0.3 mg/L | Produced carotenoid concentration, Adonixanthin [4]: 9.3 mg/L | Produced carotenoid concentration, Astaxanthin [4]: 30.3 mg/L | Produced carotenoid concentration, Asteroidenone [4]: 0.6 mg/L | Produced carotenoid concentration, Canthaxanthin [4]: 3.1 mg/L | Produced carotenoid concentration, Echinenone [4]: 2.2 mg/L | Produced carotenoid concentration, Phoenicoxanthin [4]: 7.4 mg/L | Produced carotenoid concentration, Total Carotenoid [4]: 59.4 mg/L | Produced carotenoid concentration, Zeaxanthin [4]: 0.20 mg/L | Produced carotenoid concentration, β-Carotene [4]: 5.9 mg/L | Produced carotenoid concentration, β-Cryptoxanthin [4]: 0.08 mg/L | Produced carotenoid concentration, 3-Hydroxyechinenone [5]: 0.4 mg/L | Produced carotenoid concentration, Adonixanthin [5]: 10.8 mg/L | Produced carotenoid concentration, Astaxanthin [5]: 30.9 mg/L | Produced carotenoid concentration, Asteroidenone [5]: 0.9 mg/L | Produced carotenoid concentration, Canthaxanthin [5]: 2.0 mg/L | Produced carotenoid concentration, Echinenone [5]: 2.3 mg/L | Produced carotenoid concentration, Phoenicoxanthin [5]: 6.4 mg/L | Produced carotenoid concentration, Total Carotenoid [5]: 58.9 mg/L | Produced carotenoid concentration, Zeaxanthin [5]: 0.21 mg/L | Produced carotenoid concentration, β-Carotene [5]: 4.9 mg/L | Produced carotenoid concentration, β-Cryptoxanthin [5]: 0.07 mg/L | Produced carotenoid concentration, 3-Hydroxyechinenone [6]: 0.3 mg/L | Produced carotenoid concentration, Adonixanthin [6]: 9.2 mg/L | Produced carotenoid concentration, Astaxanthin [6]: 28.6 mg/L | Produced carotenoid concentration, Asteroidenone [6]: 0.6 mg/L | Produced carotenoid concentration, Canthaxanthin [6]: 2.8 mg/L | Produced carotenoid concentration, Echinenone [6]: 2.0 mg/L | Produced carotenoid concentration, Phoenicoxanthin [6]: 7.0 mg/L | Produced carotenoid concentration, Total Carotenoid [6]: 56.2 mg/L | Produced carotenoid concentration, Zeaxanthin [6]: 0.18 mg/L | Produced carotenoid concentration, β-Carotene [6]: 5.5 mg/L | Produced carotenoid concentration, β-Cryptoxanthin [6]: 0.06 mg/L | Produced carotenoid concentration, 3-Hydroxyechinenone [7]: 0.3 mg/L | Produced carotenoid concentration, Adonixanthin [7]: 7.6 mg/L | Produced carotenoid concentration, Astaxanthin [7]: 23.5 mg/L | Produced carotenoid concentration, Asteroidenone [7]: 0.5 mg/L | Produced carotenoid concentration, Canthaxanthin [7]: 2.4 mg/L | Produced carotenoid concentration, Echinenone [7]: 1.7 mg/L | Produced carotenoid concentration, Phoenicoxanthin [7]: 5.9 mg/L | Produced carotenoid concentration, Total Carotenoid [7]: 46.7 mg/L | Produced carotenoid concentration, Zeaxanthin [7]: 0.15 mg/L | Produced carotenoid concentration, β-Carotene [7]: 4.6 mg/L | Produced carotenoid concentration, β-Cryptoxanthin [7]: 0.05 mg/L | produced carotenoid concentration compared to the sample without glutamic acid (glutamic acid at concentrations from 1 to 200 mmol/L): higher produced carotenoid concentration
